# Reference: patent US12421228B2 (Mirati Therapeutics, Inc., priority 2019, dated 2025)
# Assays:
# [1] = target: purified human, His-tagged PRC2 complex (Homo sapiens (Human), UniProt O75530); assay: Hot Spot HMT assay, inhibition of PRC2 enzymatic activity; assay type: biochemical; settings: 10 nM PRC2 complex, 0.05 mg/ml core histone H3, 1 μM 3H-SAM, 1 hr at 30° C.; read-out: IC50, Inhibition of PRC2-mediated Enzymatic Activity
# In short: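 Ten-point, three-fold dilution series from 1.0 μM. 10 nM PRC2 with 0.05 mg/ml core histone H3 in pH 8 Tris buffer was pre-incubated 20 min at 30 °C, then reacted with 1 μM [3H]-SAM for 1 hr at 30 °C. Tritiated H3 was captured by filter binding and scintillation-counted; IC50 was taken from the dose-response curve.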
# [2] = system: PRC2-mediated histone H3 methylation in Pfeiffer cells (EZH2 A677G); assay: Tri-Methyl Histone H3 (Lys 27) sandwich ELISA in Pfeiffer cells; assay type: cell-based; settings: Homo sapiens, 96 hours incubation, H3K27me3 ELISA, read-out: IC50 (nM), Inhibition of EZH2-mediated Histone H3 Trimethylation
# In short: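 Pfeiffer DLBCL cells (EZH2 A677G) exposed to 3-fold serial compound dilutions for 96 h at 37 °C. Acid-extracted (0.4 M HCl), neutralized histones then assayed by sandwich ELISA for H3K27me3 with HRP/TMB readout at 450 nm; potency reported in bins (A ≤100 nM, B >100–≤500 nM, C >500 nM).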
# [3] = system: Karpas 422 cells (EZH2 Y641N); assay: Karpas 422 cell viability (Cell Titre Glo); assay type: cell-based; settings: Homo sapiens, CTG viability, Day 4, Day 7 or Day 11 (time point not given), read-out: IC50 (nM), Inhibiting Proliferation of Cells Expressing an Activating Mutant Form of EZH2
# In short: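 Karpas 422 cells (EZH2 Y641N) in RPMI with 20% FBS, 1000 cells/well, exposed to compound from 10 μM in 3-fold dilutions down to 1.5 nM at 37° C. Viability by CellTiter-Glo at Day 4, 7 or 11; Day 11 plates re-fed with fresh medium and compound on Day 7. IC50 per time point.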
# purified human, His-tagged PRC2 complex, sequence (Q15910 whole entry): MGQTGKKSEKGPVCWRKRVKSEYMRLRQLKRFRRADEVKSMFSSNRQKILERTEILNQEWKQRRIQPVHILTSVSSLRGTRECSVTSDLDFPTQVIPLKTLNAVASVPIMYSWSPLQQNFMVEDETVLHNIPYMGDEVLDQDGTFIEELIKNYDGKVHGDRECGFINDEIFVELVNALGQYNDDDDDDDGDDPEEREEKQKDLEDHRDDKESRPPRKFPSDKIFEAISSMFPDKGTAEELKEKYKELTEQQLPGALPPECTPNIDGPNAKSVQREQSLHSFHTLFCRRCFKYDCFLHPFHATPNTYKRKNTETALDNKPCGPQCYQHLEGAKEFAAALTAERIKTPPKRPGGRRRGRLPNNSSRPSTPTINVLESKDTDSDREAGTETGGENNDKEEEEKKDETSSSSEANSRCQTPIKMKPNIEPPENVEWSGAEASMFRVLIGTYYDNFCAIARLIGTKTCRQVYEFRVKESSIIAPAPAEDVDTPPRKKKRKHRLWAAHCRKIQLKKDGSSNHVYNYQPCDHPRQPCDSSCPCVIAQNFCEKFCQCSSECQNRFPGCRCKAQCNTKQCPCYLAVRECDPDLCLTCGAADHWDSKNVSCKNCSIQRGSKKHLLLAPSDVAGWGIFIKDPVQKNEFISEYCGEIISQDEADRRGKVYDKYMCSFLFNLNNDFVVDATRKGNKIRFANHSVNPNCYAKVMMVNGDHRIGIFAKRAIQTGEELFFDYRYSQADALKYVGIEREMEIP
# purified human, His-tagged PRC2 complex, sequence (O75530 whole entry): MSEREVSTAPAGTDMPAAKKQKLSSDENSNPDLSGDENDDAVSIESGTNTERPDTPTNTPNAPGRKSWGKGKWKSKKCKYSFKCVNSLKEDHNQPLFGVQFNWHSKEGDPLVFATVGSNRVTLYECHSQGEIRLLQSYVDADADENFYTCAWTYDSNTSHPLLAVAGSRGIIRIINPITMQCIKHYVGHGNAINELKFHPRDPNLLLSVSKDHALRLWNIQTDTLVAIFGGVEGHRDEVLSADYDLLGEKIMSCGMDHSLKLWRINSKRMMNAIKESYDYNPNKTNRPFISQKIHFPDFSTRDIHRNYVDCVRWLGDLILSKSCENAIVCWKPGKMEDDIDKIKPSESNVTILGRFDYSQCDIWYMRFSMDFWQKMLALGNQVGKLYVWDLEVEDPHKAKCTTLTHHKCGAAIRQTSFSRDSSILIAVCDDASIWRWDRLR
# purified human, His-tagged PRC2 complex, sequence (Q15022 whole entry partner): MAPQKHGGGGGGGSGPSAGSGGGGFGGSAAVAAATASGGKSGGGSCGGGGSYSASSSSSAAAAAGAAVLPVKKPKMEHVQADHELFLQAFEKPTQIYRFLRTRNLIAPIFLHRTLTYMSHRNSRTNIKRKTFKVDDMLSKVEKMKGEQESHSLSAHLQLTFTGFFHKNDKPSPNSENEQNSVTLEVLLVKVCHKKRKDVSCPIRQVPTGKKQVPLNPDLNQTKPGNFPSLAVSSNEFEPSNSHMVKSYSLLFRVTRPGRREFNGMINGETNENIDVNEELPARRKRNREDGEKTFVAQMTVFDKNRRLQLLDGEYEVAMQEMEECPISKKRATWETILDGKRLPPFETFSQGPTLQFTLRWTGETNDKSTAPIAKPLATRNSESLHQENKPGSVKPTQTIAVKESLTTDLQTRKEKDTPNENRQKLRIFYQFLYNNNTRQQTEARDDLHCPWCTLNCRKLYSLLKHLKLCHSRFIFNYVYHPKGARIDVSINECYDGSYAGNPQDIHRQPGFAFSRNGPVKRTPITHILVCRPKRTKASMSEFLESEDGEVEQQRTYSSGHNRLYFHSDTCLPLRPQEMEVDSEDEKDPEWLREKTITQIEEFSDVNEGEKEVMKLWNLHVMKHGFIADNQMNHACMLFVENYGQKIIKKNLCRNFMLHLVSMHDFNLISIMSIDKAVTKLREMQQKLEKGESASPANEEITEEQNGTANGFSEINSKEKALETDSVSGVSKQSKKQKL
# purified human, His-tagged PRC2 complex, sequence (Q6ZN18 whole entry partner): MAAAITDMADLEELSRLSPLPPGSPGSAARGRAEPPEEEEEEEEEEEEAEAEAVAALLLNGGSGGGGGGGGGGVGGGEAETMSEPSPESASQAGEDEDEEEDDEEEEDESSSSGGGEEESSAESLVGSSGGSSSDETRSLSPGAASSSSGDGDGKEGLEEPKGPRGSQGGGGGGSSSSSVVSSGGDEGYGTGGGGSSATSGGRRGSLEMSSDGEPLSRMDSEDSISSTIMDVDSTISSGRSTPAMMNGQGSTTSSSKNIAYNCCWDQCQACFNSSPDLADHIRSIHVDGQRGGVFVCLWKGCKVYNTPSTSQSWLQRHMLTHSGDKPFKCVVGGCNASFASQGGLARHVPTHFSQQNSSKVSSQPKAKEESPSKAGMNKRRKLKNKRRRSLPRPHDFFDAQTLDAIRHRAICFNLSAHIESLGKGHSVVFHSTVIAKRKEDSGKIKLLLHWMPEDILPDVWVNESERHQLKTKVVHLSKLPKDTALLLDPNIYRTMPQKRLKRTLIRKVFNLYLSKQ
# purified human, His-tagged PRC2 complex, sequence (Q09028 whole entry partner): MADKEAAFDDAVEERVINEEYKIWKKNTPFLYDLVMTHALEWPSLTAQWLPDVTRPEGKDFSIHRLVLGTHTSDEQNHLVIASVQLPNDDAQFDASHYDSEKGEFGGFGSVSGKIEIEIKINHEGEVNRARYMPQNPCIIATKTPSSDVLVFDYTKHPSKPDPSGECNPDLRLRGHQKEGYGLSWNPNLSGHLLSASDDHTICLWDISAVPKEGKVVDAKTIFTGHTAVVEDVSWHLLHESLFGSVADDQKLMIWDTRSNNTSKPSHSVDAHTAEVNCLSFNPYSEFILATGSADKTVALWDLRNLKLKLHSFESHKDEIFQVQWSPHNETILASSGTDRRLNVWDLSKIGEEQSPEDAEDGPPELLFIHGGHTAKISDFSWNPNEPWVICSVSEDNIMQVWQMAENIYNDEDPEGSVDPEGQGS
compound,measurement,setting,value
Cc1cc(-c2cnc(NCc3c(F)ccc4c3CCO4)c3ccc(=O)[nH]c23)n(C)n1 [Example 53],IC50,[1],> 250 nM
same,IC50,[2],100 to 500 nM
same,IC50,[3],≤ 250 nM
Cc1cc(CN(C)C)ccc1-c1cnc(NCc2c(F)ccc3c2CCO3)c2c[nH]c(=O)cc12 [Example 41],IC50,[1],100 to 250 nM
same,IC50,[2],100 to 500 nM
same,IC50,[3],250 to 500 nM
O=c1cc2c(-c3ccc(CN4CCCC4)cc3)cnc(NCc3c(F)ccc4c3CCO4)c2c[nH]1 [Example 37],IC50,[1],100 to 250 nM
same,IC50,[2],100 to 500 nM
same,IC50,[3],≤ 250 nM
"CNCc1ccc(-c2cnc(NCc3c(F)ccc4c3CCO4)c3cncnc23)c(C)c1 [Example 26, N-((5-fluoro-2,3-dihydrobenzofuran-4-yl)methyl)-8-(2-methyl-4-((methylamino)methyl)phenyl)pyrido[4,3-d]pyrimidin-5-amine]",IC50,[1],< 100 nM
same,IC50,[2],≤ 100 nM
same,IC50,[3],≤ 250 nM
"CN(C)CCn1nccc1-c1cnc(NCc2c(F)ccc3c2CCO3)c2cnncc12 [Example 18, 8-(1-(2-(dimethylamino)ethyl)-1H-pyrazol-5-yl)-N-((5-fluoro-2,3-dihydrobenzofuran-4-yl)methyl)pyrido[3,4-d]pyridazin-5-amine]",IC50,[1],> 250 nM
same,IC50,[2],100 to 500 nM
same,IC50,[3],≤ 250 nM
